Publication PMC8126654, “Novel Pan-Pim Kinase Inhibitors With Imidazopyridazine and Thiazolidinedione Structure Exert Potent Antitumor Activities” (Frontiers in Pharmacology, 2021)

Columns and labels:
cancer cell lines = assay: Cytotoxicity assay for cell survival (cancer cell proliferation); format: cell-based; details: 96 hours; read-out: IC50 for proliferation of a broad spectrum of cancer cell lines (range)
Description: We obtained colon cancer HCT116 and HT-29 cells, prostate cancer PC-3, DU145, and LNCaP cells, lung cancer NCI-H460 and NCI-H522 cells, breast cancer MDA-MB-231 cells, AML MV-4-11 cells, and chronic myeloid leukemia (CML) K-562, MEG-01, and KU812 cells from American Type Culture Collection (Manassas, VA, United States); stomach cancer MKN45 cells from the Health Science Research Resources Bank (Osaka, Japan); pancreatic cancer AsPC-1 and MIA PaCa-2, and lung cancer A549 cells from DS Pharma Biomedical (Osaka, Japan). All cell lines were cultured in RPMI1640 medium (Life Technologies; Thermo Fisher Scientific Inc.) with 10% (v/v) fetal bovine serum (FBS; Sigma-Aldrich; Merck KgaA) at 37°C in 5% CO2.
Cells were seeded in 96-well plates and test compounds were added to the cultures at several concentrations.

Pim-1 = molecular target: T1, Pim-1 (Homo sapiens, UniProt P11309); assay: Binding detection based on SPR platform (BIACORE T200); details: 6.5, 13, 25, or 50 µM
T1 construct: purchased Life Technologies; Thermo Fisher Scientific Inc
Procedure: The interactions between test compounds and Pim-1 were detected by surface plasmon resonance platform BIACORE T200 (GE Healthcare Life Sciences, Buckinghamshire, England). Pim-1 was diluted to 20 μg/ml in 10 mM acetate buffer (pH 5.0), and then immobilized as a ligand in the N-hydroxysuccinimide/ethyl 3-(3-dimethylaminopropyl) carbodiimide-pre-activated CM5 sensor chip, following blocking by ethanolamine. Test compounds were diluted at 6.5, 13, 25, or 50 µM in a vehicle of 5% DMSO (v/v) in phosphate buffered saline (PBS). The dilutions were injected as analyte flow liquid phase with PBS containing 5% DMSO (v/v) as running buffer at a constant flow rate of 30 μL/min. A 2-min association time was set. The data were collected by Biacore Control Software. Kinetics and affinity parameters were evaluated with the Langmuir model (1:1) using BIA evaluation software.

PC-3 [1] = assay: Cell cycle analysis, PC-3; format: cell-based; details: 24 h (DMSO 41%)
Description: (§1) After treatment, cells were fixed and stained with propidium iodide using the Cell Cycle Phase Determination kit (Cayman Chemical, Ann Arbor, MI, United States) and analyzed by Guava EasyCyteTM Plus System (Merck Millipore).

MKN45 = assay: Immunoblot analysis of phosphorylation of Pim kinase substrates, MKN45; format: cell-based; details: MKN45, 4 h
Procedure: (§2) Cells were plated overnight and then treated with test compounds for 4 hours. Then, the cells were lyzed in solubilization buffer [10 mM Tris-HCl (pH7.4), 0.1% (w/v) NP-40, 0.1% (w/v) sodium deoxycholate, 0.1% (w/v) SDS, 0.15 M NaCl, 1 mM EDTA, 10 µM aprotinin] with phosphatase inhibitor cocktails (Nakarai Tesque, Kyoto, Japan), and subjected to SDS-PAGE using 15% (w/v) gels under reducing conditions. The separated proteins were electrotransferred to Immobilon transfer membranes (Merck Millipore, Darmstadt, Germany). Then, each membrane was reacted with primary antibodies, which were subsequently complexed with appropriate horseradish peroxidase-conjugated secondary antibodies. Signals were detected using the ECL Western Blotting Detection System (GE Healthcare Life Sciences) and protein expression was quantified with a LAS-3000 Luminescent Image Analyzer (GE Healthcare Life Sciences). The protein bands were quantified using ImageQuant TL software (GE Healthcare Life Sciences).

MV-4-11 = assay: Cell cycle analysis, MV-4-11; format: cell-based; details: 24 h (DMSO 52%)
Description: as §1

Pim-1, 2, and 3 = assay: Kinetic assay (Lineweaver-Burk analysis); format: biochemical
Procedure: Enzyme kinetic experiments were performed at pH 7.5 in 50 mM HEPES buffer with 1 mM EGTA, 10 mM MgCl2, and 0.01% Brij-35. […] Plates were immediately placed into a Caliper LabChip EZ Reader II (PerkinElmer Inc.) and wells were sampled periodically throughout an 1-hour reaction period for initial reaction rate. The fluorescent product and substrate were separated and monitored on a Caliper microfluidic instrument. The conversion of substrate was calculated with Caliper software. Ki values were determined from the double reciprocal Lineweaver-Burk plot.

PC-3 [2] = assay: Immunoblot analysis of phosphorylation of Pim kinase substrates, PC-3; format: cell-based; details: PC-3, 4 h
Procedure: as §2

T1 sequence (P11309 whole entry): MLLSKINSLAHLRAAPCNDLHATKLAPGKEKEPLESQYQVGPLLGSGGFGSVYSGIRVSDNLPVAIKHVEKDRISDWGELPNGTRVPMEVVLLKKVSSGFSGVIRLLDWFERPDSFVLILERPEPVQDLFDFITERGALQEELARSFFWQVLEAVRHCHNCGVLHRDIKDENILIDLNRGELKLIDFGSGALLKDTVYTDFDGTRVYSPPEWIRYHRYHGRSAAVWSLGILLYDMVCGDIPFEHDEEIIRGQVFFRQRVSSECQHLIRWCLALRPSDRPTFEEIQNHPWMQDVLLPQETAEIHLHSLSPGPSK

SMILES: CN1CCN(c2ccc(-c3cnc4ccc(/C=C5\SC(=O)NC5=O)nn34)cc2)CC1 [YPC-21440, (Z)-5-([3-{4-(4-methylpiperazin-1-yl)phenyl}imidazo[1,2-b]pyridazin-6-yl]methylene)thiazolidine-2,4-dione]
- IC50 (cancer cell lines): 27 to 1000 nM
- Binding to Pim-1 by SPR (Biacore) (Pim-1): bound Pim-1 in a concentration-dependent manner
- Percentage of cells in G1 phase (PC-3 [1]; PC-3, 0.3 µM): 55%
- Percentage of cells in G1 phase (PC-3 [1]; PC-3, 1 µM): 65%
- Phosphorylation levels of Bad, 4EBP, and p21 (MKN45): decreased
- Percentage of cells in G1 phase (MV-4-11; MV-4-11, 0.3 µM): 55%
- Percentage of cells in G1 phase (MV-4-11; MV-4-11, 1 µM): 77%
- Mode of inhibition of Pim kinases (Lineweaver-Burk) (Pim-1, 2, and 3): ATP competitive manner
- Phosphorylation levels of Bad, 4EBP, and p21 (PC-3 [2]): decreased
